Test results from US20240115540A1, “METHODS FOR PROVIDING HEALTH BENEFITS IN ANIMALS” (Société des Produits Nestlé S.A., priority 2022, published 2024).

Test system: db/db mice
Assay: CKD mice study: db/db mice fed test diets for 8 weeks (glomerular hyperfiltration, glycogen storage, kidney histology)
Type: in vivo
Description: The present study used db/db mice at 8 weeks of age for 8 weeks of intervention. The mice were divided into 4 groups of 9-10 mice administered with different blends (the Control group was administered with standard AIN-93M diet, the Dapa Group was administered standard AIN-93M augmented with dapagliflozin at 10 mg/kg, the RPB group was administered a standard diet augmented with a renal protection blend, the RPB+ group was administered a standard diet augmented with a renal protection blend that included medium chain triglycerides); the diets are shown in Table 1. The blends were administered to study glomerular hyperfiltration and glycogen storage in tissues. Final weekly food intake, final body weight, final blood glucose level, final lean body mass, and final fat mass of the groups is presented in Table 2. Also presented in table 2 were GFR progression, urine albumin/creatine ratio, urine protein/creatinine ratio, glomerulosclerosis score, Periodic acid-Schiff (PAS) staining scores for distal convoluted tubule (DCT) lumen, PAS staining scores for intranuclear inclusions distal tubules, and PAS staining scores for cytoplamis aggregates distal tubules.
In addition to the measurements of Table 2, the mice were measured for hyalinosis on a scoring system of no hyalinosis, intermediate hyalinosis, or severe hyalinosis, where hyalinosis refers to the thickening of the walls of the glomerular arterioles by the deposits of homogenous hyaline material. […] The control group had 1 mouse with no hyalinosis, 4 mice with intermediate hyalinosis, and 4 with significant hyalinosis; the dapa group had 2 mice with no hyalinosis, 5 mice with intermediate hyalinosis, and 2 mice with significant hyalinosis, the RPB group had 5 mice with no hyalinosis, 4 mice with intermediate hyalinosis, and 1 mouse with significant hyalinosis, and the RPB+ group had 2 mice with no hyalinosis and 8 mice with intermediate hyalinosis.

[1] = glomerular arterioles, groups of 9-10
[2] = kidney tissue, 8 weeks of intervention

SMILES: CCOc1ccc(Cc2cc([C@@H]3O[C@H](CO)[C@@H](O)[C@H](O)[C@H]3O)ccc2Cl)cc1 [Dapa, dapagliflozin]
- GFR progression (8 weeks of intervention): 0.01 mL/min
- Blood glucose (final) (after 8 weeks of intervention): 464.78 mg/dL
- Fat mass (final) (after 8 weeks of intervention): 23.99 g
- Lean mass (final lean body mass) (after 8 weeks of intervention): 15.31 g
- number of mice with intermediate hyalinosis [1]: 5 mice
- number of mice with no hyalinosis [1]: 2 mice
- number of mice with significant (severe) hyalinosis [1]: 2 mice
- Glomerulosclerosis score [2]: 1.83
- PAS DCT lumen (PAS staining score, distal convoluted tubule lumen) [2]: 1.44
- PAS cytoplasmic aggregates DT (PAS staining score, distal tubules) [2]: 1.78
- PAS intranuclear inclusions DT (PAS staining score, distal tubules) [2]: 2.11
- Albumin/Creatinine ratio (urine, 8 weeks of intervention): 181.54
- Protein/Creatinine ratio (urine, 8 weeks of intervention): 36.92
